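Step 1: Grow cells in 96-well plates. Step 2: Expose to compound for 48 hours at 5 concentrations. Step 3: Interpolate endpoints linearly; if unreached, use highest concentration. GI50 is the concentration that inhibits growth by half. TGI is the concentration that stops growth completely.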
Key:
Assay in all cases: NCI tumour cell line growth inhibition, 48 h
MDA-MB-435 = tested on: MDA-MB-435
MCF7 breast = tested on: MCF7 breast
LOX IMVI melanoma = tested on: LOX IMVI melanoma
U251 CNS = tested on: U251 CNS
NCI-H226 lung = tested on: NCI-H226 lung
A549 NSCLC = tested on: A549 NSCLC
SNB-75 CNS = tested on: SNB-75 CNS
M14 melanoma = tested on: M14 melanoma
EKVX NSCLC = tested on: EKVX NSCLC
A498 renal = tested on: A498 renal
SK-MEL-28 melanoma = tested on: SK-MEL-28 melanoma
SK-MEL-2 melanoma = tested on: SK-MEL-2 melanoma
MALME-3M melanoma = tested on: MALME-3M melanoma
NCI-H460 lung = tested on: NCI-H460 lung
NCI-H522 lung = tested on: NCI-H522 lung
HOP-92 NSCLC = tested on: HOP-92 NSCLC
NCI-H23 lung = tested on: NCI-H23 lung
HOP-62 NSCLC = tested on: HOP-62 NSCLC
SK-MEL-5 melanoma = tested on: SK-MEL-5 melanoma
UACC-62 melanoma = tested on: UACC-62 melanoma
UO-31 renal = tested on: UO-31 renal
CAKI-1 renal = tested on: CAKI-1 renal
PC-3 prostate = tested on: PC-3 prostate
HCT-116 colon = tested on: HCT-116 colon
KM12 colon = tested on: KM12 colon
ACHN renal = tested on: ACHN renal
786-0 renal = tested on: 786-0 renal
HS 578T breast = tested on: HS 578T breast
HCT-15 colon = tested on: HCT-15 colon

For `O=C(NNc1nc2cc(F)c(F)cc2n2c(CN3CC4CNCC4C3)ccc12)c1ncccn1` (stereo unspecified), the GI50 (MDA-MB-435) was 3.85 µM, the TGI (MDA-MB-435) was 16.4 µM and the GI50 (MCF7 breast) was 3.07 µM. It also gave a TGI (MCF7 breast) of 14 µM, a GI50 (LOX IMVI melanoma) of 1.06 µM and a TGI (LOX IMVI melanoma) of 5.21 µM. For the same compound, the GI50 (U251 CNS) was 1.9 µM, the TGI (U251 CNS) was 14.6 µM and the GI50 (NCI-H226 lung) was 2.77 µM. The TGI (NCI-H226 lung) was 18.1 µM, the GI50 (A549 NSCLC) was 2.82 µM and the TGI (A549 NSCLC) was 13.2 µM. For the same compound, the GI50 (SNB-75 CNS) was 2.19 µM, the TGI (SNB-75 CNS) was 13.6 µM and the GI50 (M14 melanoma) was 1.14 µM. For the same compound, the TGI (M14 melanoma) was 9.42 µM, the GI50 (EKVX NSCLC) was 1.79 µM and the TGI (EKVX NSCLC) was 17.7 µM. It also gave a GI50 (A498 renal) of 2.36 µM, a TGI (A498 renal) of 8.64 µM and a GI50 (SK-MEL-28 melanoma) of 2.83 µM. It also gave a TGI (SK-MEL-28 melanoma) of 14.8 µM, a GI50 (SK-MEL-2 melanoma) of 4.23 µM and a TGI (SK-MEL-2 melanoma) of 20.7 µM. For the same compound, the GI50 (MALME-3M melanoma) was 2.53 µM, the GI50 (NCI-H460 lung) was 0.567 µM and the TGI (NCI-H460 lung) was 6.99 µM. It also gave a GI50 (NCI-H522 lung) of 4.37 µM, a TGI (NCI-H522 lung) of 21.2 µM and a GI50 (HOP-92 NSCLC) of 6.46 µM. The TGI (HOP-92 NSCLC) was 28.3 µM, the GI50 (NCI-H23 lung) was 3.48 µM and the TGI (NCI-H23 lung) was 16.2 µM. For the same compound, the GI50 (HOP-62 NSCLC) was 1.04 µM, the TGI (HOP-62 NSCLC) was 11.2 µM and the GI50 (SK-MEL-5 melanoma) was 1.65 µM. The TGI (SK-MEL-5 melanoma) was 4.4 µM, the GI50 (UACC-62 melanoma) was 2.57 µM and the TGI (UACC-62 melanoma) was 11.6 µM. The GI50 (UO-31 renal) was 0.448 µM, the TGI (UO-31 renal) was 10.1 µM and the GI50 (CAKI-1 renal) was 0.756 µM. It also gave a TGI (CAKI-1 renal) of 11.9 µM, a GI50 (PC-3 prostate) of 3.22 µM and a TGI (PC-3 prostate) of 39.6 µM. It also gave a GI50 (HCT-116 colon) of 1.6 µM, a TGI (HCT-116 colon) of 14.5 µM and a GI50 (KM12 colon) of 3.18 µM. It also gave a TGI (KM12 colon) of 22.8 µM, a GI50 (ACHN renal) of 0.512 µM and a TGI (ACHN renal) of 10.7 µM. The GI50 (786-0 renal) was 2.18 µM, the TGI (786-0 renal) was 9.02 µM and the GI50 (HS 578T breast) was 5.98 µM. The TGI (HS 578T breast) was 37 µM and the GI50 (HCT-15 colon) was 0.526 µM.
